SMILES strings stand for the structures. Where only a bound is given, the exact number is not on record here.

For 27 compounds, Ki results are on record in US7528138B2, “Pyrazolo[1,5-a]pyrimidines useful as inhibitors of protein kinases” (Vertex Pharmaceuticals Incorporated, priority 2004, dated 2009).

What all share (type): biochemical
In one assay the target is T1, JAK3 (Homo sapiens, UniProt P52333).
T1 sequence (P52333 1-1124): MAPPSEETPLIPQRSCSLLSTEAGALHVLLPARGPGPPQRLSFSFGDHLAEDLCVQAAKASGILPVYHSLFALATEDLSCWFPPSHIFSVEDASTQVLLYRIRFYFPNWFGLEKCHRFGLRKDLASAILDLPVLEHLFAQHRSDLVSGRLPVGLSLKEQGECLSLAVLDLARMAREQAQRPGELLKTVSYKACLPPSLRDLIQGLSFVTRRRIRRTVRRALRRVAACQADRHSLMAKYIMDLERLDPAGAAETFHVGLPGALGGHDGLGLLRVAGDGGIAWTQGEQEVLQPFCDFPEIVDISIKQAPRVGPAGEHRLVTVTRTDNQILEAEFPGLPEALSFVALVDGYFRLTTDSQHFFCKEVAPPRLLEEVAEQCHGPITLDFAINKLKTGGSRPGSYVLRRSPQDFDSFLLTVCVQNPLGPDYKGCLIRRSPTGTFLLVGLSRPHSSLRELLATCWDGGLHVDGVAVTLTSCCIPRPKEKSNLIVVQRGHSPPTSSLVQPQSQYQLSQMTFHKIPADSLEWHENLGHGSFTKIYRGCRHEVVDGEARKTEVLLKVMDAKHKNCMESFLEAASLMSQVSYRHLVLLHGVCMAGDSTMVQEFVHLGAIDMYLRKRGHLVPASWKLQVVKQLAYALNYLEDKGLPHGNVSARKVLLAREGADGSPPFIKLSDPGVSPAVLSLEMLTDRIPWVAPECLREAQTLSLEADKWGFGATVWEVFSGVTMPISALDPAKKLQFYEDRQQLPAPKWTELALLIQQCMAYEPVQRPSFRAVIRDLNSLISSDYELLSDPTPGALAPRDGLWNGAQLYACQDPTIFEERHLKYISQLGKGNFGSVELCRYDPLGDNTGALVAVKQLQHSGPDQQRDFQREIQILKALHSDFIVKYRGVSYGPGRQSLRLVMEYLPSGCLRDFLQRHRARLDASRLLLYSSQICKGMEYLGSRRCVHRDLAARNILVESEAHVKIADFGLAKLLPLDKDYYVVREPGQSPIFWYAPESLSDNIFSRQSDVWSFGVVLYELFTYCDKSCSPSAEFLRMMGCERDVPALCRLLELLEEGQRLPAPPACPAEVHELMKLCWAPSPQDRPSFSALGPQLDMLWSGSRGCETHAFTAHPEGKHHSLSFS
Kind of assay: JAK3 Inhibition Assay, 33P incorporation. Conditions: enzyme inhibition data (Ki), Table 11. The method in brief:
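Recombinant JAK3 at 1 nM in HEPES pH 7.4 buffer with 10 mM MgCl2, 1 mM DTT and 0.01% BSA. Substrates were 5 μM ATP (200 uCi/μmole) and 1 μM poly(Glu)4Tyr, reacted 20 min at 25 °C. Stopped with TCA, and 33P incorporation counted on glass fiber filters.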

The next assay addresses c-Met (Homo sapiens, UniProt P08581). Kind of assay: c-Met Inhibition Assay, coupled enzyme system. Conditions: enzyme inhibition data (Ki), Table 11. The method in brief: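 Pyruvate kinase/lactate dehydrogenase-coupled NADH assay in HEPES pH 7.5 with 80 nM c-Met, 200 μM ATP and 10 μM polyGluTyr at 30° C. Compound (0.006–12.5 μM final, 12-point) preincubated 10 min before ATP start; rates over 10 min gave Ki.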

In a further assay the target is T2, Itk (Homo sapiens, UniProt Q08881).
T2 sequence (Q08881 1-620): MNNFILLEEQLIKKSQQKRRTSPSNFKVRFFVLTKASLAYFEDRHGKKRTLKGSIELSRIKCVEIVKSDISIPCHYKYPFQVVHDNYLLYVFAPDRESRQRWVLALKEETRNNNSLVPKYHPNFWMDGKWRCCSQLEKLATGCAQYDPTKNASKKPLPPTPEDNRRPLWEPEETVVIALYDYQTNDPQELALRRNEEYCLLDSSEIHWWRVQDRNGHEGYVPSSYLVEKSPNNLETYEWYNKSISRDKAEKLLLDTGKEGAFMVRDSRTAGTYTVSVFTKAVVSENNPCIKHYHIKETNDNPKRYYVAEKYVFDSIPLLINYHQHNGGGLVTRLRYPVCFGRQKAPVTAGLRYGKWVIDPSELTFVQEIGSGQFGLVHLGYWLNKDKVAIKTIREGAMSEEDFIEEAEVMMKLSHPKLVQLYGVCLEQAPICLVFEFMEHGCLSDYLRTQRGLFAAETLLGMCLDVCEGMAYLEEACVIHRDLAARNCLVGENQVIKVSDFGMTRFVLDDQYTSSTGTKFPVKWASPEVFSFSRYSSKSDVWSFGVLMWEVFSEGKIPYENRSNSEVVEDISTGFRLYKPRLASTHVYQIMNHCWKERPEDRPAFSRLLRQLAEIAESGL
Kind of assay: ITK Inhibition Assay (Radiometric), radioactive-phosphate incorporation. Conditions: enzyme inhibition data (Ki), Table 11; radiometric or UV assay not stated. The method, boiled down: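 Radiometric 33P incorporation into SAM68 peptide (D332-443) with filter capture and scintillation counting; 10 min pre-incubation then 10 min reaction at 25° C. IC50 format: 30 nM Itk, 15 μM ATP, 2 μM peptide, HEPES pH 7.5. Ki(app) format: 50 nM Itk, 7.5 μM ATP, 3 μM peptide, MOPS pH 7.0.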

Chain of c-Met (P08581 25-1390): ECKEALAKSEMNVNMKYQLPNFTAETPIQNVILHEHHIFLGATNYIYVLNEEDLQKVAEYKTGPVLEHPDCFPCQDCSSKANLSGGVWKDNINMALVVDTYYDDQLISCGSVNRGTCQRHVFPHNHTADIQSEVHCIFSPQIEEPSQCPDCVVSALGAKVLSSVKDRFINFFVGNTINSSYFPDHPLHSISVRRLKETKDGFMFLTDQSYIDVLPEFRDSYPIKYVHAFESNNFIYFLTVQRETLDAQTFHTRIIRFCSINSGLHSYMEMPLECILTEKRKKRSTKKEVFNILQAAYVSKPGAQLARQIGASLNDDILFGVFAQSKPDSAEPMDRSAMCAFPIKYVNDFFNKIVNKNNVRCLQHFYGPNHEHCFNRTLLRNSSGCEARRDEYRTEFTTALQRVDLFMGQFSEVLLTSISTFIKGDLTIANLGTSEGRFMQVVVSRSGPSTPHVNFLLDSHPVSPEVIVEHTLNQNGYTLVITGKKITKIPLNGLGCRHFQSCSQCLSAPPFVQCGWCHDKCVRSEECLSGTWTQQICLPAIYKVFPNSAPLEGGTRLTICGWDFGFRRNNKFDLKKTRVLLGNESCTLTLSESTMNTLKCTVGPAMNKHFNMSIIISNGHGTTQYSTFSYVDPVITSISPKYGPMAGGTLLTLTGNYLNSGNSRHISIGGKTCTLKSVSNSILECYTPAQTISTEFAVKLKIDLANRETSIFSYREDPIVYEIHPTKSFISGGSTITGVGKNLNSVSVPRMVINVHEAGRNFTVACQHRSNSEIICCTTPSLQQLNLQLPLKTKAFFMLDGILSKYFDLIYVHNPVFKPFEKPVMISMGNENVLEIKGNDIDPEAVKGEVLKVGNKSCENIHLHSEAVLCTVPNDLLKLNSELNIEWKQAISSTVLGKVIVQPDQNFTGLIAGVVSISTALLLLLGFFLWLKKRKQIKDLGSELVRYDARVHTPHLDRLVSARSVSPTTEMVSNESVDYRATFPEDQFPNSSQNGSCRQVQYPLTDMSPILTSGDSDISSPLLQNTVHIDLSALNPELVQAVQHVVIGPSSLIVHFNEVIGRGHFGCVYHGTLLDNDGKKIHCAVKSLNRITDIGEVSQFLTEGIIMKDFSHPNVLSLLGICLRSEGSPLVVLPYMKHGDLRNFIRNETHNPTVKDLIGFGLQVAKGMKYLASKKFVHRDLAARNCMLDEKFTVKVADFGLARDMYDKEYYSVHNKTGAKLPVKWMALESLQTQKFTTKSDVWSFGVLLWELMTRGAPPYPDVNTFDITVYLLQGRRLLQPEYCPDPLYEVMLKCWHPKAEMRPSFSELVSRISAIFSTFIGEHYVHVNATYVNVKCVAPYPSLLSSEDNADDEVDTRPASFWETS

The Ki is a dissociation constant, usually derived from enzyme kinetics or from competition with a known ligand. Turning to `CN(C)CCCc1cnc2c(-c3ccccn3)c(N)nn2c1` [Compound V-316], the figures for the Ki on JAK3, at c-Met and on Itk were more than 5 µM, 0.5 to 5 µM and 0.5 to 5 µM, respectively.

On to `CC(C)CN(C)CCCc1cnc2c(-c3ccccn3)c(N)nn2c1` [Compound V-317], for which the inhibition constant (Ki) on JAK3 was more than 5 µM; on c-Met, 0.5 to 5 µM; on Itk, 0.5 to 5 µM.

For the compound `CCN(C)CCCc1cnc2c(-c3ccccn3)c(N)nn2c1` [Compound V-318], the results for the Ki at JAK3, on c-Met and on Itk were more than 5 µM, 0.5 to 5 µM and 0.5 to 5 µM, respectively.

Consider `CCN(CC)CCCc1cnc2c(-c3ccccn3)c(N)nn2c1` [Compound V-319], for which the Ki was more than 5 µM on JAK3, less than 0.5 µM on c-Met and 0.5 to 5 µM on Itk.

With `CC(C)N(CCCc1cnc2c(-c3ccccn3)c(N)nn2c1)C(C)C` [Compound V-320], the Ki at JAK3 is more than 5 µM; at c-Met, 0.5 to 5 µM; at Itk, 0.5 to 5 µM.

As for `CCN(CC)CCN(C)CCCc1cnc2c(-c3ccccn3)c(N)nn2c1` [Compound V-321], the Ki on JAK3 is more than 5 µM; on c-Met, 0.5 to 5 µM; at Itk, 0.5 to 5 µM.

As to `Nc1nn2cc(CCCNC3CC3)cnc2c1-c1ccccn1` [Compound V-322], the Ki was more than 5 µM on JAK3, 0.5 to 5 µM on c-Met and 0.5 to 5 µM at Itk.

Regarding `Nc1nn2cc(CCCNC3CCCCC3)cnc2c1-c1ccccn1` [Compound V-323], the Ki was more than 5 µM at JAK3, 0.5 to 5 µM on c-Met and 0.5 to 5 µM at Itk.

As for `Nc1nn2cc(CCCNC3CCC3)cnc2c1-c1ccccn1` [Compound V-324], the Ki was more than 5 µM on JAK3, less than 0.5 µM on c-Met and 0.5 to 5 µM at Itk.

Consider `Nc1nn2cc(CCCN3CC[C@H](O)C3)cnc2c1-c1ccccn1` [Compound V-325], for which the Ki was more than 5 µM on JAK3, 0.5 to 5 µM at c-Met and 0.5 to 5 µM at Itk.

Take `C[C@@H](CO)NCCCc1cnc2c(-c3ccccn3)c(N)nn2c1` [Compound V-326]: the Ki on JAK3 is more than 5 µM; on c-Met, 0.5 to 5 µM; on Itk it was 0.5 to 5 µM.

Consider `CC(C)NCCCc1cnc2c(-c3ccccn3)c(N)nn2c1` [Compound V-327], for which the Ki at JAK3 was more than 5 µM; at c-Met, 0.5 to 5 µM; at Itk it was 0.5 to 5 µM.

For `Nc1nn2cc(CCCN3CCSCC3)cnc2c1-c1ccccn1` [Compound V-328], the Ki is more than 5 µM on JAK3, 0.5 to 5 µM at c-Met and 0.5 to 5 µM on Itk.

On to `Nc1nn2cc(CCCNCC3CCCO3)cnc2c1-c1ccccn1` (stereo not drawn) [Compound V-329], for which the values for the Ki on JAK3, on c-Met and on Itk were more than 5 µM, less than 0.5 µM and 0.5 to 5 µM, respectively.

For the compound `CCOC(=O)C1CCCN(CCCc2cnc3c(-c4ccccn4)c(N)nn3c2)C1` (stereo not drawn) [Compound V-330], the Ki on JAK3 was more than 5 µM; on c-Met, 0.5 to 5 µM; at Itk it was 0.5 to 5 µM.

As to `CC(C)N1CCN(CCCc2cnc3c(-c4ccccn4)c(N)nn3c2)CC1` [Compound V-331], the Ki was more than 5 µM at JAK3, 0.5 to 5 µM at c-Met and 0.5 to 5 µM at Itk.

`Cc1cnc2c(-c3cc(NC4CCCC4)ncn3)c(N)nn2c1` [Compound V-332]: the Ki on JAK3 was 0.5 to 5 µM; on c-Met, less than 0.5 µM; at Itk, less than 0.5 µM.

With `Cc1cnc2c(-c3cc(NC4CC5CCC4C5)ncn3)c(N)nn2c1` (stereo not drawn) [Compound V-333], the Ki on JAK3 is 0.5 to 5 µM; at c-Met, less than 0.5 µM; on Itk, less than 0.5 µM.

As to `Cc1cnc2c(-c3cc(N[C@H]4CCC[C@@H]4OCc4ccccc4)ncn3)c(N)nn2c1` [Compound V-334], the Ki at JAK3 was 0.5 to 5 µM; at c-Met it was less than 0.5 µM; on Itk, 0.5 to 5 µM.

With `Cc1cnc2c(-c3cc(N[C@@H]4CCOC4)ncn3)c(N)nn2c1` [Compound V-335], the Ki on JAK3 was 0.5 to 5 µM; on c-Met, less than 0.5 µM; at Itk it was 0.5 to 5 µM.

As for `Cc1cnc2c(-c3cc(N[C@@H]4CCC[C@H]4OCc4ccccc4)ncn3)c(N)nn2c1` [Compound V-336], the Ki on JAK3 was 0.5 to 5 µM; on c-Met, less than 0.5 µM; at Itk, 0.5 to 5 µM.

Turning to `Cc1cnc2c(-c3cc(NC4CCNC4)ncn3)c(N)nn2c1` (stereo not drawn) [Compound V-337], the Ki at JAK3, on c-Met and on Itk was less than 0.5 µM throughout.

As for `Cc1cnc2c(-c3cc(N4CCCC(C)C4)ncn3)c(N)nn2c1` (stereo not drawn) [Compound V-339], the Ki at JAK3, at c-Met and at Itk was less than 0.5 µM throughout.

With `Cc1cnc2c(-c3cc(N4CCCC(CO)C4)ncn3)c(N)nn2c1` (stereo not drawn) [Compound V-340], the figures for the Ki on JAK3, at c-Met and at Itk were 0.5 to 5 µM, less than 0.5 µM and 0.5 to 5 µM, respectively.

`Cc1cnc2c(-c3cc(N4CCC(C(N)=O)CC4)ncn3)c(N)nn2c1` [Compound V-341]: the Ki at JAK3, at c-Met and at Itk was 0.5 to 5 µM in each case.

For the compound `Cc1cnc2c(-c3cc(N4CCCC(O)C4)ncn3)c(N)nn2c1` (stereo not drawn) [Compound V-342], the Ki at JAK3 was 0.5 to 5 µM; at c-Met, less than 0.5 µM; at Itk it was 0.5 to 5 µM.

With `Cc1cnc2c(-c3cc(N4CCC(NC(=O)C(F)(F)F)C4)ncn3)c(N)nn2c1` (stereo not drawn) [Compound V-343], the Ki on JAK3, at c-Met and at Itk was 0.5 to 5 µM throughout.
